Measured values: US20220175860A1, “DUNALIELLA ALGA PREPARATION FOR PREVENTION AND/OR TREATMENT OF A NEURODEGENERATIVE DISEASE, A DISORDER ASSOCIATED WITH PROTEIN MISFOLDING AND COGNITIVE DECLINE” (TEL HASHOMER MEDICAL RESEARCH INFRASTRUCTURE AND SERVICES …, priority 2019, published 2022)
Like-named read-outs stand apart in the source and are kept apart here.

Columns and labels:
[1] = Tissue carotenoids by HPLC in Tg2576 mice; assay type: in vivo; details: Tg2576 study, mice fed Dunaliella diet vs control diet
Text: In order to assess whether carotenoid level was higher in brain tissue of Tg2576 mice fed with the Dunaliella diet as compared to the control group, mice brain carotenoids were extracted and then measured using HPLC.

[2] = test system: blood brain barrier (BBB) in-vitro model (endothelial cells / glial cells); assay: In vitro blood brain barrier (BBB) cell culture model, HPLC of carotenoids; assay type: in vitro ADME, porcine brain endothelial cells, new born rat glial cells
Protocol: FIG. 5A-FIG. 5C: Schematic drawings of the in vitro blood brain barrier (BBB) cell culture system. The model consists of a monolayer of endothelial cells, forming tight junctions that are grown on a microporous membrane filter culture insert (luminal side) and glial cells seeded at the abluminal side of the filter. Low Density Lipoprotein (LDL, 100 μl 1,600 μg/ml) from a healthy volunteer is added to the luminal side. Cells are incubated for 24 hours and then samples are collected from the luminal and abluminal side and analyzed.
An in vitro model of the blood brain barrier (BBB) was used. The model consists of a monolayer of endothelial cells, obtained from primary cultures of endothelial cells established from freshly collected porcine brain forming tight junctions that are grown on a microporous membrane filter culture insert (the “Luminal side” in FIG. 6) and of a monolayer of glial cells extracted from new born rats' cortex that are seeded at the abluminal side of the filter (the “Abluminal side” in FIG. 6). Low density lipoprotein (LDL, 100 μl, 1,600 μg/ml from a healthy volunteer) was added to the luminal side. Cells were then incubated for 24 hours and thereafter samples were collected and analyzed using HPLC. The model was prepared by first seeding the glial cells on the abluminal side of a filter, a week later, the above-described endothelial cells were seeded on the luminal side of the filter and two days later LDL was added to the luminal side of the filter as indicated above.
LDL was obtained from healthy volunteers by sequential ultracentrifugation (density, 1.063 g/ml), and the concentration was determined by the Lowry method.
Using the “BBB in-vitro model” described above and schematically shown in FIG. 5A, 5B, 5C, glial and endothelial cells were incubated for 24 hours in the presence of LDL (inherently containing all-trans and 9-cis β-carotene) and then samples were collected and carotenoids were extracted and analyzed using HPLC.

[3] = Tissue carotenoids by HPLC in 5×FAD mice; details: for Amount in brain tissues: 5×FAD mice fed Dunaliella algae diet vs regular diet, HPLC; for Accumulation in liver, fat and brain tissues: 5×FAD study, Dunaliella diet group vs control group
[4] = carotenoids in human LDL added to luminal side, 24 hours incubation, HPLC

Tissue levels (liver, fat, brain) [1]	Crossing of the BBB (luminal to abluminal side) [2, 4]	Amount in brain tissues [3]	Accumulation in liver, fat and brain tissues [3]	Crossing of the BBB (luminal to abluminal side) [2]	SMILES
much higher levels	crossed the BBB	significantly higher amounts	much higher levels		CC1=C(/C=C/C(C)=C\C=C\C(C)=C\C=C\C=C(C)\C=C\C=C(C)\C=C\C2=C(C)CCCC2(C)C)C(C)(C)CCC1 [9-cis β Carotene, 9-cis β-carotene]
much higher levels	crossed the BBB	significantly higher amounts	much higher levels		CC1=C(/C=C/C(C)=C/C=C/C(C)=C/C=C/C=C(C)/C=C/C=C(C)/C=C/C2=C(C)CCCC2(C)C)C(C)(C)CCC1 [all-trans β Carotene, all-trans β-carotene]
				did not cross the BBB	CC(C)=CCC/C(C)=C/C=C/C(C)=C/C=C/C(C)=C/C=C/C=C(C)/C=C/C=C(C)/C=C/C=C(\C)CCC=C(C)C [lycopene, reference compound]
